Consider 13 compounds from patent US4249005A, “Alkoxymethyl and benzyloxymethyl phenobarbital compounds” (priority 1969, dated 1981).

Some results are limits rather than exact numbers.

The nature of data set [1]: Hypnotic activity (loss of the righting reflex). Format: in vivo, adult albino male mice (Charles River strain). The note with it: any dosage less than a lethal dose for compounds of the invention. On the procedure:
(§1) All tests, with the exceptions noted, were conducted on adult albino male mice (Charles River strain); the dosage consisted of the active agent suspended in 10% aqueous acacia and was administered orally unless otherwise indicated.

The conditions of data set [2]: cited from earlier work.
Data set [3] is described as follows: Anticonvulsant effectiveness against maximal electroshock. Format: in vivo, adult albino male mice (Charles River strain). The note with it: for ED50: Mus musculus, at time of peak effect, limits in parentheses; for ED50 / Time of peak activity: oral, mice. Here is the method:
as §1
(§2) Anticonvulsant effectiveness of each agent against maximal electroshock was determined at the time of peak effect. The time of peak anticonvulsant activity was determined by administering dosages of various sizes to a group of animals and administering a maximal electroshock to the animals at intervals thereafter by supply 60 ma. current through a corneal electrode for 0.2 second. […] The time of peak effect thus determined was used for all subsequent tests of anticonvulsant activity on the same active agent.
The duration of the anticonvulsant effect against maximal electroshock was compared with that of phenobarbital sodium at a dosage level of 0.1 millimole/kg of each.
For orientation: The maximal electroshock test induces tonic seizures with an electrical stimulus.

The next data set is described as follows: Acute oral toxicity. Further details: species or system adult albino male mice (Charles River strain). The note with it: mouse, in vivo. On the procedure:
as §1
(§3) Acute oral toxicity and acute intraperitoneal toxicity were determined in the conventional manner. The results were expressed as LD50, the dose required to produce death in 50% of the animals treated, determined graphically, with the 95% limits shown in parentheses.

Data set [4] in a line: Acute intraperitoneal toxicity. More on the design: species or system adult albino male mice (Charles River strain). As to conditions: mouse, in vivo, ip, mice, 95% limits in parentheses. Here is the method:
as §1, §3

Data set [5] can be described thus: Anticonvulsant effectiveness against Metrazol. The data set is classed as in vivo, adult albino male mice (Charles River strain). The note with it: oral, mice; for ED50: Mus musculus, Metrazol 106.25 mg/kg subcutaneously, limits in parentheses. On the procedure: as §1
(§4) Anticonvulsant effectiveness was determined against a convulsive dose of Metrazol (106.25 mg/kg) injected subcutaneously; the criterior for effectiveness was failure to show clonic convulsive seizures. Anticonvulsant activity was determined against a lethal dose of strychnine sulfate (1.5 mg/kg) injected subcutaneously; the criterion was failure to die, even though seizures appeared.

Data set [6] can be described thus: Neurological deficit (Swinyard et al. plus rotorod). More on the design: species or system adult albino male mice (Charles River strain). As to conditions: mouse, in vivo; oral, mice; 95% limits in parentheses. On the procedure: as §1
The dosage required to produce a neurological deficit was determined by the method of Swinyard et al., J. Pharmacol. Exptl. Therap. 106, 319 (1952) except that one additional test was employed: the ability of the animal to remain for at least one minute on a "rotorod", a horizontal rod rotated at 6 r.p.m. The results were expressed as TD50, the dose required to produce the effect, determined graphically, with 95% limits.

A short description of data set [7]: Anticonvulsant activity against maximal electroshock in the rat. The data set is classed as in vivo. The note with it: rat (Sprague Dawley Strain); limits in parentheses. On the procedure: as §2
For data set [8] the following is noted: reported in Doran, Medicinal Chemistry, 1959; cited from earlier work.
A short description of data set [9]: Anticonvulsant activity against strychnine. Format: in vivo, adult albino male mice (Charles River strain). As to conditions: Mus musculus, po, read-out: Strychnine, ED50. Here is the method:
as §1, §4

Setting [10] is: oral, mice, 95% limits in parentheses, read-out: LD50 (oral).
Where [11] appears, read: 0.1 millimole/kg, maximal electroshock.

With `CCC1(c2ccccc2)C(=O)NC(=O)NC1=O` [Phenobarbital, phenobarbital], the “Hypnotic activity (loss of the righting reflex, onset of sleep)” value in data set [1] is “did exhibit hypnotic activity”. For the same compound, in data set [2] (known property), the hypnotic activity entry is reported as “exhibits hypnotic activity as well as anticonvulsant activity”. Further, the anticonvulsant usefulness entry in [2] (long known, treatment of epilepsy) is on record as “useful as anticonvulsant agents in warm-blooded animals”.
A word on the ED50: it is the dose that gives a 50% effect, or the effect in half of the subjects. For the compound `CCOCN1C(=O)N(COCC)C(=O)C(CC)(c2ccccc2)C1=O` [Example 5, 1,3-diethoxymethyl-5-ethyl-5-phenyl barbituric acid], the median effective dose (ED50) in [3] was less than 25 mg/kg. In [3] (maximal electroshock), the “Time of peak activity” value is listed as 11/2.
As usually defined, the LD50 is the dose expected to kill half of the subjects tested. With `CCCCOCN1C(=O)N(COCCCC)C(=O)C(CC)(c2ccccc2)C1=O` [Example 4, 1,3-di-(n)-butoxymethyl-5-ethyl-5-phenyl barbituric acid], the median effective dose (ED50) in data set [3] was less than 100 mg/kg. Moreover, the LD50 in “Acute oral toxicity” (setting [10]) is more than 500 mg/kg.
In the case of `CCC1(c2ccccc2)C(=O)NC(=O)NC1=O` [phenobarbital sodium, reference compound], in data set [3] (setting [11]), the “time at which protection began to decrease” value was “four” and the “time at which protection was nearly gone” value was “eight”. Further, in [3] (0.1 millimole/kg, comparator), the “onset of protection against maximal electroshock” value is recorded as “less than 0.5 hour”.
For the compound `CCC1(CC)C(=O)N(COC)C(=O)N(COC)C1=O` [Example 9, 1,3-dimethoxymethyl-5,5-diethyl-barbituric acid], the LD50 in data set [4] was approximately 1000 mg/kg; in “Acute oral toxicity” (setting [10]) it was more than 1000 mg/kg. The ED50 in data set [5] stood at 7 mg/kg. Besides, the “Time of peak activity” value in data set [5] (reported with Metrazol result, test not stated) turned out to be 1 h.
As usually defined, the TD50 is the dose at which the toxic effect under study appears in half of the subjects. Consider `CCC1(c2ccccc2)C(=O)N(COC)C(=O)N(COC)C1=O` [Example 1, 1,3-dimethoxymethyl-5-ethyl-5-phenyl barbituric acid], for which, in data set [6], the TD50 is 47 mg/kg. Besides, the ED50 in [7] amounted to 6.6 mg/kg; in data set [5] it was 47 mg/kg; in data set [9], 200 mg/kg; in data set [3] it was 13.5 mg/kg. The hypnotic effect result in data set [8] is listed as “without effect”. The LD50 in [4] stood at 490 mg/kg; in the data set “Acute oral toxicity” (setting [10]), 470 mg/kg. For the same compound, the “duration of protection against maximal electroshock at about the same level” value in [3] (0.1 millimole/kg) is “more than eight”. Further, the “Time of peak activity” value in data set [3] (maximal electroshock) turned out to be 2 h. Further, the “change in the ED50 to protect against maximal electroshock on repeated dosage” value in data set [3] (repeated daily dosage of the same animals for four days) is on record as “no significant change”.
As to `O=C1NC(=O)C(c2ccccc2)(c2ccccc2)N1` [diphenylhydantoin], in [2] (known property), the hypnotic activity result is “not hypnotic”; the undesirable side effects result was “hypertrophic gingivitis, megaloblastic anemia, toxic psychoses, and hirsutism”.
As to `C=CCC1(C(C)CCC)C(=O)N(COC)C(=O)N(COC)C1=O` (stereo not drawn) [Example 11, 1,3-dimethoxymethyl-5-allyl-5-(2-pentyl) barbituric acid], the 50% effective dose (ED50) in data set [5] is approximately 100 mg/kg. Also, in “Acute oral toxicity” (setting [10]), the median lethal dose (LD50) is more than 500 mg/kg.
Take `COCN1C(=O)NC(c2ccccc2)(c2ccccc2)C1=O` [Example 2, 3-methoxymethyl-5,5-diphenylhydantoin]: in data set [3], the 50% effective dose (ED50) was less than 25 mg/kg. Also, in [3] (after ingestion), the “duration of anticonvulsant activity (maximal electroshock)” value is on record as “more than 2 hours” and the “onset of anticonvulsant activity (maximal electroshock)” value is on record as “less than 0.5 hour”. Further, the LD50 in “Acute oral toxicity” (route not stated with the value (oral unless otherwise indicated), read-out: LD50) is approximately 500 mg/kg.
For `CCCCCCCCCCCCOCN1C(=O)N(COCCCCCCCCCCCC)C(=O)C(CC)(CC)C1=O` [Example 10, 1,3-di-n-dodecyloxymethyl-5,5-diethyl barbituric acid], the ED50 in data set [5] is approximately 200 mg/kg. Further, the 50% lethal dose (LD50) in the data set “Acute oral toxicity” (setting [10]) was more than 1000 mg/kg.
On the same counts, the results for `C=CCC1(C(C)CCC)C(=O)N(COCc2ccccc2)C(=O)N(COCc2ccccc2)C1=O` (stereo not drawn) [Example 12, 1,3-dibenzyloxymethyl-5-allyl-5-(2-pentyl) barbituric acid] are approximately 200 mg/kg and more than 1000 mg/kg.
In the case of `CCCCOCN1C(=O)NC(c2ccccc2)(c2ccccc2)C1=O` [Example 6, 3-(n)-butoxymethyl-5,5-diphenylhydantoin], the 50% effective dose (ED50) in data set [3] is less than 25 mg/kg. Moreover, the LD50 in “Acute oral toxicity” (setting [10]) was more than 500 mg/kg.
On to `CCCCCCCCCCCCOCN1C(=O)N(COCCCCCCCCCCCC)C(=O)C(CC)(c2ccccc2)C1=O` [Example 8, 1,3-dilauryloxymethyl-5-ethyl-5-phenyl barbituric acid], for which the median effective dose (ED50) in data set [3] is approximately 50 mg/kg. Further, the “Time of peak activity” value in [3] (maximal electroshock) was 2 h. In addition, the LD50 in the data set “Acute oral toxicity” (setting [10]) was more than 500 mg/kg.
